# Target: T1, α7-subtype of nicotinic receptors (Rattus norvegicus, UniProt Q05941)
# T1 construct: Cerebral cortices from male Wistar rats (150-250 g) are homogenised; from tissue; host or cells: rat cerebral cortex membrane homogenate
# Experiment: In vitro inhibition of 3H-α-bungarotoxine binding in rat brain
# Details: rat cerebral cortex homogenate; 3H-α-bungarotoxine 2 nM; 2 hours at 37° C.
# T1 sequence (Q05941 23-502): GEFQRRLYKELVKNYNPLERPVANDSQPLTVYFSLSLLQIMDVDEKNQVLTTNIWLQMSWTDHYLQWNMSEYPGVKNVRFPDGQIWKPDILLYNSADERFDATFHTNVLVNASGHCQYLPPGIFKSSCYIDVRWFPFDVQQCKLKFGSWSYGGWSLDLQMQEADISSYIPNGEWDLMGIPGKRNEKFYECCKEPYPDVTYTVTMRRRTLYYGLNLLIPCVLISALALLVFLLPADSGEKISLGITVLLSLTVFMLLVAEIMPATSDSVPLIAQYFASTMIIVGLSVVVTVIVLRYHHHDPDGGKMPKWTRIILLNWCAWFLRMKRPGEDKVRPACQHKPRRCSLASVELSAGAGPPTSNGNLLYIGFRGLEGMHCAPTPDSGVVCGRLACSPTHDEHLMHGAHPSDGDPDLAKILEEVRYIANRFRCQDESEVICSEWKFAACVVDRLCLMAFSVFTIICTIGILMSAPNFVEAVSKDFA
row,SMILES,IC50 [nM]
1,"O=C(c1ccco1)N1CCN2CCC1CC2 [Compound A1, (1,4-Diaza-bicyclo[3.2.2]-non-4-yl)-furan-2-yl-methanone]",540
2,"O=C(c1ccc(-c2cccc(C(F)(F)F)c2)o1)N1CCN2CCC1CC2 [Compound A5, (1,4-Diaza-bicyclo[3.2.2]-non-4-yl)-5-(3-trifluoromethylphenyl)-furan-2-yl-methanone]",51
3,"Nc1cccc(-c2ccc(C(=O)N3CCN4CCC3CC4)o2)c1 [Compound C3, (1,4-Diaza-bicyclo[3.2.2]-non-4-yl)-5-(3-aminophenyl)-furan-2-yl-methanone]",80
4,"O=CNc1ccc(-c2ccc(C(=O)N3CCN4CCC3CC4)o2)cc1 [Compound F1, (1,4-Diaza-bicyclo[3.2.2]-non-4-yl)-5-(4-formylaminophenyl)-furan-2-yl-methanone]",17
